Reference: PMC9177545, “3-oxo-C12:2-HSL, quorum sensing molecule from human intestinal microbiota, inhibits pro-inflammatory pathways in immune cells via bitter taste receptors” (Scientific Reports, 2022)

Tests used:
[1] = test system: RAW264.7 macrophages; assay: Cytokine mRNA levels by RT-qPCR in RAW264.7 macrophages stimulated with LPS and IFNγ; assay type: cell-based, murine; details: 50 µM, 2 h, vs control
Method: RAW264.7 murine macrophage cells (ATCC, Manassas, Virginia, USA) were cultured between passage 12 and 25 in Dulbecco’s modified Eagle’s medium supplemented with 10% heat-inactivated fetal calf serum and 1% L-glutamine (ThermoFisher Scientific). The macrophages were seeded at 35,000 cells per well in 12-well plates (Falcon) for ELISA experiments or 110,000 cells per well in 6-well plates (Falcon) for cell lysates, upon reaching 80–90% confluence after 3-day culture. Cells were maintained at 37 °C with 5% CO2/air atmosphere and the media were changed every other day.
(§1) Cells were exposed to 3-oxo-C12:2-HSL (synthesized as previously described[17]) or DMSO 0.1% as a control for different durations depending on the experiment, in the presence of the lactonase inhibitor 2-hydroxyquinoline (100 µM, Sigma-Aldrich), in order to limit the hydrolysis of the AHL lactone ring, as described previously[17],[18].
(§2) In RAW264.7 cells, inflammation was triggered with LPS (10 ng/mL, Sigma) and IFNγ (10 U/mL, R&Dsystems) for 2 h or 6 h, depending on the experiments. PBMC were exposed to LPS (10 ng/mL) and AHL for 24 h. For TAS2R38 inhibition experiments, cells were exposed to TAS2R38 allosteric inhibitor probenecid (1 mM, Sigma) for one hour before adding AHLs and the inflammatory cocktail, without changing the media.
Total RNA was extracted from RAW264.7 cells using TRIzol (Invitrogen) according to the manufacturer's instructions. Reverse Transcription (RT) was performed with 1 μg RNA using LunaScript® RT SuperMix Kit (NewEngland Biolabs). Semi-quantitative real-time PCR was performed with the Mx3000P Stratagene system using SYBR Green (Applied Biosystems) according to the manufacturer's procedures. Cyclophilin was used as the reference gene. After amplification, Ct were determined.

[2] = test system: PBMC; assay: TNFα secretion by ELISA in PBMC stimulated with LPS; assay type: cell-based, human; details: LPS 10 ng/mL, 24 h, dose-dependent between 25 to 100 µM
Method: Peripheral Blood Mononuclear Cells (PBMC) were extracted from whole blood of anonymous donors and collected by Etablissement Français du Sang of Paris, France.
PBMC were cultured in Roswell Park Memorial Institute medium (ThermoFisher Scientific) with 10% heat-inactivated fetal calf serum, 1% L-glutamine, 1% non-essential amino acids, 1% sodium pyruvate, penicillin (100 IU/mL), and streptomycin (100 µg/mL). Peripheral blood was harvested in EDTA tubes, blood was diluted with PBS 1:1, layered over Histopaque-1077® (Sigma) and centrifuged for 20 min at 400g at room temperature. Extracted PBMC were washed twice with sterile PBS then centrifuged at 300g for 5 min and resuspended in complete medium. For experiments, cells were seeded at 300,000 cells per well in 200 µL of medium in 96-well plates (ThermoFisher Scientific).
as §1, with “previously[17],[18]. […]” for “previously[17],[18].”
At the end of cell treatment, the medium was centrifuged at 300g for 5 min at 4 °C. […] Absorbance was measured by a spectrometer (FLUOstar Omega; BMG Labtech) at 450 nm and the absorbance at 540 nm was subtracted.

[3] = test system: RAW264.7 cells and PBMC; assay: Cytotoxicity by lactate dehydrogenase release; assay type: cell-based; details: doses of AHL used in all experiments
Method: Release of lactate dehydrogenase into the medium was measured to assess cellular toxicity. LDH concentration was measured using the Cytotoxicity Detection Kit (Roche, Boulogne-Billancourt, France) according to the manufacturer’s instructions. The media were centrifuged 5 min at 250g to remove any cells. 50 µL of reaction mixture was added to 50 µL of media supernatant in 96-well plates. After 10 min at room temperature, 25 µL of stop solution was added. Absorbance at 490 nm was determined with a microplate spectrometer (FLUOstar Omega; BMG Labtech). Results are expressed as absorbance arbitrary units.

[4] = test system: STAT3; assay: STAT3 phosphorylation by Wes capillary electrophoresis in activated RAW264.7 macrophages; assay type: cell-based, murine; details: 50 µM, 2 h, LPS and IFNγ stimulated
Method: as §2
RAW264.7 cells were scraped in lysis buffer (20 mM Tris- HCl, pH 7.4, 5 mM EDTA, 0.15 M NaCl, 1% Triton X-100, 0.5% sodium deoxycholate) supplemented with protease inhibitor cocktail (Complete Mini; Roche, Boulogne-Billancourt, France) and phosphatase inhibitor cocktail (PhosSTOP, Sigma-Aldrich). Protein concentrations were determined using the BC Assay (Uptima/Interchim). Wes™ analyses (capillary electrophoresis system; ProteinSimple, San Jose, CA) were performed according to the manufacturer’s recommendations, and adequate protein concentrations and antibody dilutions were determined in preliminary assays to allow optimal quantitative conditions. […] Data were analysed using Compass for SW3.1 software (ProteinSimple).

[5] = test system: RAW264.7 cells; assay: Intracellular calcium assay (Fluo-4) in RAW264.7 cells; assay type: cell-based, murine; details: 1000 µM
Method: RAW264.7 cells were seeded in black, clear-bottom 96-well plates (Costar) at 20,000 cells per well. The next day, release of intracellular Ca^2+ was measured using Fluo-4 (Fluo-4 Direct Calcium Assay; Life Technologies) according to the manufacturer’s instructions. Medium was discarded and 100 µL of 1 X Fluo-4 dye was incubated at 37 °C for 1 h in 5% CO2, protected from light. Then, basal fluorescence was measured using a fluorospectrometer (FLUOstar Omega; BMG Labtech), excitation at 485 nm and emission at 520 nm. Molecules of interest were then added with an electronic pipette; thapsigargin (10 µM, Sigma) as a positive control, 3-oxo-C12:2-HSL (1000 µM) or DMSO 0.5%; with 8 replicates per conditions for every experiment. The fluorescence signal was immediately measured every 80 s for 2 h. Results are expressed as a ratio of the fluorescence x times over the basal fluorescence (F/F0).

[6] = test system: Caco-2/TC7; parameters: method as in PMID 30157234; details: Caco-2/TC7 stimulated by IL-1β ref 17; cited from earlier work

For 3-oxo-C12:2-HSL, the “IL-10 expression (Il10 mRNA)” value [1] was “strongly increased”, the “Il1b mRNA level” value [1] was “reduced” and the “Tnf mRNA level” value [1] was “reduced”. The TNFα secretion [2] was “strongly decreased”, the “cytotoxicity, lactate dehydrogenase release compared to the control” value [3] was “no significant difference” and the “phosphorylation level of STAT3 vs activated cells without AHL” value [4] was “not significantly altered”. The “slope of the calcium response curve vs control condition” value ([5]; Fluo-4 F/F0, two hours) was “significantly higher”, the “intracellular calcium level compared with the control” value ([5]; basal state, Fluo-4, two hours, control DMSO 0.5%) was “increase” and the IL-8 production [6] was “decreased”.
